Experimental findings from paper PMC9323974, “Palladium(II) Complexes of Substituted Salicylaldehydes: Synthesis, Characterization and Investigation of Their Biological Profile” (Pharmaceuticals, 2022) are described below.

One may read the Kd as the equilibrium constant for the complex coming apart.

The target of one assay is CT DNA. Put plainly: CT DNA binding by UV-vis spectroscopy. Also on record: species or system calf. Conditions: Wolfe–Shimer equation. On the procedure:
page 8: […] spectroscopy, viscosity measurements and fluorescence emission spectroscopy studies. […] UV-vis spectroscopy was used for the evaluation of the interaction of the compounds with CT DNA, and specifically the possible binding modes of the compounds to CT DNA. Control experiments with DMSO were performed and no changes in the spectra of CT DNA were observed. In order to determine the binding mode, the UV-vis spectra of the compounds were […] concentrations of CT DNA for diverse r (r = [complex]/[DNA]) values. Effective use of the changes […] compounds were calculated by the Wolfe-[…] equation (eq. […] εf) versus [DNA]: (eq. S1) where [DNA] = the concentration of DNA in base pairs, ε f= the extinction coefficient for the free compound at the corresponding λmax, εA = Aobsd/[compound] and εb= the extinction coefficient for the compound in the fully bound form. K b is given by the ratio of slope to the y intercept in plots [DNA]/(εA-εf) versus [DNA]. S3.2 CT DNA-binding studies by viscosity measurements […] presence of increasing amounts of the compounds. The experiments were executed at room temperature and the measurements are devised in a plot (η/η 0)1/3 versus r, where η = the viscosity of DNA in the presence of the compound, and η0 = the viscosity of neat DNA in buffer solution. […] In order to determine and confirm the DNA-binding mode of the compounds, a competitive study with EB as an intercalating marker is performed by fluorescence emission spectroscopy. Therefore, the EB-displacing ability of the compounds from its EB-DNA conjugate was examined. […] solution (150 mM NaCl and 15 mM trisodium citrate at pH 7.0). The potential intercalation of the compounds between the DNA-bases was studied by the addition of a certain amount of the 8 (1 picture or pasted object on this page, not shown here)

The next assay deals with T1, HSA (Homo sapiens, UniProt P02768).
T1 construct: purchased Sigma-Aldrich Co
Put plainly: HSA fluorescence quenching. Format: binding. The settings on record: for ΔΙ/Ιο (%) HSA fluorescence quenching: HSA 3 μM; for K HSA-binding constant: Scatchard; for relative HSA-fluorescence emission intensity, % of the initial: final value. On the procedure: (§1) S4 Interaction with serum albumins
(§2) S4.1 Study of the affinity for serum albumins
(§3) The albumin–binding study for the compounds was carried out by fluorescence emission quenching experiments using BSA (3 μM) or HSA (3 μM) in buffer solution (15 mM trisodium citrate and 150 mM NaCl at pH 7.0). The tested compounds were used as quenchers with gradually increasing concentrations to monitor the quenching of the emission intensity of tryptophan residues of BSA at 345 nm or HSA at 340 nm [S6]. The fluorescence emission spectra were recorded between 300–500 nm with excitation wavelength of 295 nm. All the experiments were conducted at room temperature. The fluorescence spectra of the compounds were recorded under the same experimental conditions and presented a low–intensity emission band in the region 395–415 nm.
(§4) Consequently, the SA fluorescence emission spectra were modified properly, by subtracting the spectra of the compounds, and quantitative studies followed.
(§5) The extent of the inner–filter effect can be roughly estimated with the following formula: […]
(§6) where Icorr= corrected intensity, Imeas= the measured intensity, c = the concentration of the quencher, d = the cuvette length (1 cm), ε(λexc) and ε(λem) = the ε of the quencher at the excitation and the emission wavelength, respectively, as calculated from the UV –vis spectra of the complexes [S 8].
(§7) The interaction of the quencher (i.e. compounds) with serum albumins [S6] was studied through the Stern–Volmer and Scatchard equations [S6] and corresponding graphs. The values of the respective Stern–Volmer constant KSV (M–1), the quenching constant k q (M–1s–1), the SA– binding constant K (M–1) and the number of binding sites per albumin (n) were calculated.
(§8) According to Stern–Volmer quenching equation [S6] (eq. S2), where I 0 = the initial tryptophan fluorescence intensity of SA, I = the tryptophan fluorescence intensity of SA after the addition of the quencher, kq = the quenching rate constants of SA, K SV = the dynamic quenching constant, τ0 = the average lifetime of SA without the quencher, [Q] = the concentration of the quencher), the Stern –Volmer constant (KSV, M–1) can be obtained by the slope of the diagram I0/I versus [Q]. Taking τ0 = 10–8 s as fluorescence lifetime of tryptophan in SA [S2], the quenching constant (kq, M–1s–1) is calculated from equation S3.
(§9) From the Scatchard equation (eq. S5) [S6]: […]
(§10) (1 picture or pasted object on this page, not shown here) […]
(§11) where n = the number of binding sites per albumin and K = the SA–binding constant. The K constant (M−1) is calculated from the slope in plots (ΔI/I0)/[Q] versus (ΔI/I0) and n is given by the ratio of y intercept to the slope [S9]. […]

Assay [1] in a line: Reduction of hydrogen peroxide. The settings on record: compound 0.1 mM. On the procedure: S1 Antioxidant biological assay
The antioxidant activity of the compounds was evaluated via their ability to scavenge in […]
vitro free radicals such as DPPH and ABTS and to reduce H2O2. […]
S1.3 Reduction of hydrogen peroxide
The ability of the compounds to reduce hydrogen peroxide (H2O2) was estimated according […]
to the method described in the literature [S2]. The reaction mixture contained 20 μL of each of the […]
tested compounds (0.1 mM) and 5 μL H 2O2 solution (40 mM) in phosphate buffer (50 mM, pH 7.4).
The absorbance was measured at 230 nm after 10 min. The antioxidant activity (reduction of […]

For a further assay, the target named is T2, BSA (Bos taurus, UniProt P02769).
T2 construct: purchased Sigma-Aldrich Co
Put plainly: BSA fluorescence quenching. Type of assay: binding, bovine. Conditions: for ΔΙ/Ιο (%) BSA fluorescence quenching: BSA 3 μM; for K BSA-binding constant: Scatchard; for relative BSA-fluorescence emission intensity, % of the initial: final value. On the procedure: as §1, §2, §3, §4, §5, §6, §7, §8, §9, §10, §11

T1 sequence (P02768 25-609): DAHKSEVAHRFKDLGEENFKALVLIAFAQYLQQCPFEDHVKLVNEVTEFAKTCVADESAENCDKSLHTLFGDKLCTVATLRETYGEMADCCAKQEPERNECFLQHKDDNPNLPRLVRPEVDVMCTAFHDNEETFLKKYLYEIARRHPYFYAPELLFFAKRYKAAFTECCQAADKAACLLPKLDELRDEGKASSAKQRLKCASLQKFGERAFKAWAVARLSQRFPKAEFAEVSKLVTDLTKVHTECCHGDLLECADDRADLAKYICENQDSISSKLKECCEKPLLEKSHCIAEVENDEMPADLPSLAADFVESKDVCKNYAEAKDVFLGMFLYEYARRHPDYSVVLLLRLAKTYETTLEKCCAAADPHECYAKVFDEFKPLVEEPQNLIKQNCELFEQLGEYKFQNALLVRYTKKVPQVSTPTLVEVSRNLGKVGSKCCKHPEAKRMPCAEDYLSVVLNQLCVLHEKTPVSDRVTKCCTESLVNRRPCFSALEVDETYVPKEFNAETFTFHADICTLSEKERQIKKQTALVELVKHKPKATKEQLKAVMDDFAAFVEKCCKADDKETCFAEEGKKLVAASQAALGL
T2 sequence (P02769 25-607): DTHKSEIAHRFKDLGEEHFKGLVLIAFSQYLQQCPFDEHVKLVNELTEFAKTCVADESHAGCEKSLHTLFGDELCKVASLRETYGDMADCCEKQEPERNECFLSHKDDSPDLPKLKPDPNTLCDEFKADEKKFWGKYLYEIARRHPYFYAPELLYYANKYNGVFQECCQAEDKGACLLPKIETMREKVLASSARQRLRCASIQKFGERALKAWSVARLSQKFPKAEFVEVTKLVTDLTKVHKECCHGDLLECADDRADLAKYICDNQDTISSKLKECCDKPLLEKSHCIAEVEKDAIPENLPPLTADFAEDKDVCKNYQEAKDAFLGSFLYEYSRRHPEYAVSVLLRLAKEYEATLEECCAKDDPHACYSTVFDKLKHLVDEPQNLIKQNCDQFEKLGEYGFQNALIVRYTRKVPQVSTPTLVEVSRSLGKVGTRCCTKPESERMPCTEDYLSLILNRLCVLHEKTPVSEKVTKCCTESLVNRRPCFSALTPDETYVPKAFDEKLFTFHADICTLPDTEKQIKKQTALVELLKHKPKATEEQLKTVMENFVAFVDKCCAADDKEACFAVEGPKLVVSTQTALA

As to `CCN(CC)c1ccc(C=O)c(O)c1` [4-Et2N-saloH, 4-diethylamino-salicylaldehyde, reference compound], the “Kb (DNA-binding constant)” value at CT DNA is 5.06 (±0.14) × 10^5 M^−1. Moreover, on HSA, the Kd was 2.48 µM and the “kq HSA-quenching constant” value was 2.10 (±0.22) × 10^13 M^−1 s^−1. This compound also had an H2O2% in assay [1] of 76.57 ± 0.71%. Further, at BSA, binding was put at a Kd of 2.4 µM and the “kq BSA-quenching constant” value was 1.41 (±0.06) × 10^13 M^−1 s^−1.
Turning to `COc1ccc(C=O)c(O)c1` [4-OMe-saloH, 4-methoxy-salicylaldehyde, reference compound], at HSA, the Kd was 10.3 µM and the “kq HSA-quenching constant” value is 2.28 (±0.13) × 10^12 M^−1 s^−1. The H2O2% in assay [1] came out at 94.24 ± 0.67%.
As to `O=Cc1cc(F)ccc1O` [5-F-saloH, 5-fluoro-salicylaldehyde, reference compound], the “Kb (DNA-binding constant)” value at CT DNA was 8.37 (±0.47) × 10^4 M^−1. On HSA, the Kd is 21.5 µM and the “kq HSA-quenching constant” value is 1.96 (±0.07) × 10^12 M^−1 s^−1. In assay [1], this compound registered an H2O2% of 71.84 ± 0.95%. In addition, on BSA, the Kd was 23.2 µM and the “kq BSA-quenching constant” value was 1.98 (±0.08) × 10^12 M^−1 s^−1.
As to `CCN(CC)c1ccc(C=O)c([O][Pd][O]c2cc(N(CC)CC)ccc2C=O)c1` [Complex 1, [Pd(4-Et2N-salo)2]], on CT DNA, the “Kb (DNA-binding constant)” value was 3.66 (±0.22) × 10^5 M^−1. Moreover, on HSA, the “kq HSA-quenching constant” value is on record as 3.48 (±0.14) × 10^13 M^−1 s^−1; the “ΔΙ/Ιο (%) HSA fluorescence quenching” value amounted to 91.8%; the “K HSA-binding constant” value was 1.25 (±0.06) × 10^5 M^−1; the “relative HSA-fluorescence emission intensity, % of the initial” value is reported as 8.2%. In assay [1], the H2O2% turned out to be 18.19 ± 0.29%. Also, on BSA, the “kq BSA-quenching constant” value is on record as 5.72 (±0.44) × 10^13 M^−1 s^−1; the “ΔΙ/Ιο (%) BSA fluorescence quenching” value was determined as 92.9%; the “K BSA-binding constant” value was 1.08 (±0.06) × 10^5 M^−1; the “relative BSA-fluorescence emission intensity, % of the initial” value came out at 7.2%.
As to `O=Cc1cc(Br)cc(Br)c1[O][Pd][O]c1c(Br)cc(Br)cc1C=O` [Complex 2, [Pd(3,5-diBr-salo)2]], on CT DNA, the “Kb (DNA-binding constant)” value is reported as 3.18 (±0.21) × 10^5 M^−1. For the same compound, at HSA, the “kq HSA-quenching constant” value was 4.22 (±0.13) × 10^13 M^−1 s^−1; the “ΔΙ/Ιο (%) HSA fluorescence quenching” value turned out to be 88.8%; the “K HSA-binding constant” value was 4.12 (±0.15) × 10^5 M^−1; the “relative HSA-fluorescence emission intensity, % of the initial” value was found to be 11.2%. The compound further displayed an H2O2% in assay [1] of 49.21 ± 0.32%. At BSA, the “kq BSA-quenching constant” value is recorded as 2.11 (±0.08) × 10^14 M^−1 s^−1; the “ΔΙ/Ιο (%) BSA fluorescence quenching” value came out at 97.5%; the “K BSA-binding constant” value is 1.50 (±0.06) × 10^6 M^−1; the “relative BSA-fluorescence emission intensity, % of the initial” value turned out to be 2.5%.
`O=Cc1cc(Cl)cc(Cl)c1[O-].O=Cc1cc(Cl)cc(Cl)c1[O-].[Pd+2]` [Complex 3, [Pd(3,5-diCl-salo)2]]: the “Kb (DNA-binding constant)” value on CT DNA is listed as 1.90 (±0.12) × 10^6 M^−1. Also, on HSA, the “kq HSA-quenching constant” value was 5.00 (±0.12) × 10^13 M^−1 s^−1; the “ΔΙ/Ιο (%) HSA fluorescence quenching” value was determined as 90.4%; the “K HSA-binding constant” value is recorded as 4.10 (±0.17) × 10^5 M^−1; the “relative HSA-fluorescence emission intensity, % of the initial” value worked out at 9.6%. The compound also had an H2O2% in assay [1] of 51.26 ± 0.70%. In addition, at BSA, the “kq BSA-quenching constant” value is given as 1.11 (±0.04) × 10^14 M^−1 s^−1; the “ΔΙ/Ιο (%) BSA fluorescence quenching” value was found to be 97.2%; the “K BSA-binding constant” value was 7.82 (±0.24) × 10^5 M^−1; the “relative BSA-fluorescence emission intensity, % of the initial” value stood at 2.8%.
For `O=Cc1cc(F)ccc1[O-].O=Cc1cc(F)ccc1[O-].[Pd+2]` [Complex 4, [Pd(5-F-salo)2]], at CT DNA, the “Kb (DNA-binding constant)” value is recorded as 2.84 (±0.14) × 10^5 M^−1. Further, at HSA, the “kq HSA-quenching constant” value is given as 1.82 (±0.06) × 10^13 M^−1 s^−1; the “ΔΙ/Ιο (%) HSA fluorescence quenching” value was determined as 75.7%; the “K HSA-binding constant” value is on record as 1.38 (±0.05) × 10^5 M^−1; the “relative HSA-fluorescence emission intensity, % of the initial” value turned out to be 24.3%. The same compound showed an H2O2% in assay [1] of 48.31 ± 0.67%. In addition, at BSA, the “kq BSA-quenching constant” value is 2.24 (±0.14) × 10^13 M^−1 s^−1; the “ΔΙ/Ιο (%) BSA fluorescence quenching” value was 85.7%; the “K BSA-binding constant” value is 8.79 (±0.13) × 10^4 M^−1; the “relative BSA-fluorescence emission intensity, % of the initial” value is 14.3%.
As to `COc1ccc(C=O)c([O-])c1.COc1ccc(C=O)c([O-])c1.[Pd+2]` [Complex 5, [Pd(4-OMe-salo)2]], the “Kb (DNA-binding constant)” value at CT DNA is 1.27 (±0.10) × 10^6 M^−1. Moreover, at HSA, the “kq HSA-quenching constant” value is recorded as 6.69 (±0.23) × 10^13 M^−1 s^−1; the “ΔΙ/Ιο (%) HSA fluorescence quenching” value is 92.2%; the “K HSA-binding constant” value is given as 3.56 (±0.12) × 10^5 M^−1; the “relative HSA-fluorescence emission intensity, % of the initial” value is reported as 7.8%. The same compound registered an H2O2% in assay [1] of 58.38 ± 0.54%. In addition, at BSA, the “kq BSA-quenching constant” value was 2.17 (±0.09) × 10^14 M^−1 s^−1; the “ΔΙ/Ιο (%) BSA fluorescence quenching” value was 97.2%; the “K BSA-binding constant” value is 9.18 (±0.27) × 10^5 M^−1; the “relative BSA-fluorescence emission intensity, % of the initial” value is 2.8%.
